Experiments:
[1] = system: NRCs; assay: ADP/ATP ratio in NRCs; format: cell-based, rat; conditions: T3 15 nM for 6 days, scrLNA or miR27b-5p LNAs
Protocol: Mitochondria were isolated using the Mitochondria Isolation Kit for Cultured Cells (Abcam). Briefly, 1.2×10^6 NRCs were seeded per 6 cm dish and cells collected by scraping. After a freeze-thaw step to weaken the cell membrane, the cells were resuspended to a protein concentration of 5 mg/mL in Reagent A and incubated for 10 min on ice. The cells were homogenized with 30 strokes in a Dounce Homogenizer and centrifuged at 1000 g for 10 min at 4° C. The pellet was resuspended in the same volume of Reagent B than was used for Reagent A and rupturing and centrifugation was repeated. The supernatants after the two centrifugation steps were combined and centrifuged at 12000 g for 15 min at 4° C. Pellet was resuspended in 80 μL Reagent C supplemented with protease inhibitors and stored at −80° C. Mitochondrial ADP:ATP quantification was performed as recommended by the manufacturer (Abcam). 4×10^5 NRCs were seeded per well in a 3 cm dish and the assay was performed using the EnzyLight ADP/ATP Ratio Assay Kit (ELDT-100, Bioassay Systems) as recommended by the manufacturer. Luminescence was measured on a FLUOstar Omega plate reader (BMG).

[2] = system: NRCs; assay: [3H]leucine incorporation assay in NRCs; format: cell-based, rat; conditions: T3 15 nM for 6 days, scrLNA or miR27b-5p LNAs
Protocol: [^3H]leucine incorporation assay was used to measure de novo protein synthesis as an indirect readout for cell growth (Fukuzawa et al. Hypertension 35, 1191-1196 (2000).). 4×10^5 cells were seeded per 3 cm dish. After 3 days, cells were serum-starved overnight. Next day, cells were cultured in leucine-free medium for 4h, followed by culturing in maintenance medium containing labeled […] (specific activity 30-60 Ci/mmol, ART0233, American Radiolabelled Chemicals) at a concentration of 0.5 μCi/mL for 20 h. The next day, cells were washed with PBS, trypsinized and the radioactivity was measured for 5 min in the liquid scintillation analyzer Tri-Carb 2800TR (Perkin Elmer). Cells were counted blinded with a Neubauer chamber after trypsinization and scintillation counts were normalized to absolute cell number.

[3] = system: primary neonatal rat cardiomyocytes (NRC); assay: Immunofluorescent staining of NRCs: multinucleation and cell size; format: cell-based; conditions: 10 μM ADP for 3 days
Protocol: Isolation of primary neonatal rat cardiomyocytes (NRC) was performed using the neonatal heart dissociation kit (130-098-373, Miltenyi Biotec) as recommended by the manufacturer. Isolated cells were pre-plated with plating medium (65% DMEM, 16% M199, 10% fetal calf serum (FCS), 5% horse serum (HS), 2% glutamine and 1% penicillin/streptomycin (P/S)) for 1.5 h to deplete of the fibroblasts. NRC were plated on Type-I Collagen-coated (Advanced Biomatrix) 3 cm dishes (Nunc) in plating medium. The plating medium was changed to maintenance medium (88% DMEM, 9% M199, 1% HS, 2% glutamine and 1% P/S) 24 h after isolation of NRCs. Cardiomyocytes were treated with 3,3′,5-Triiodo-L-thyronine (T3, T5516, Sigma Aldrich) for 6 days at a concentration of 15 nM. NRCs were stimulated with exogenous ADP (A2754, Sigma Aldrich) at a concentration of 10 μM for 3 days. NRC were randomly chosen for treatment the day after isolation.
Immunofluorescent stainings were performed as described previously (Krishnan et al. Cell Metab 9, 512-524 (2009)). After fixation of NRCs with 4% paraformaldehyde (PFA)/PBS, the cells were permeabilized and incubated with primary antibodies against sarcomeric α-actinin (A7811, Sigma Aldrich) and phospho-Histone H3 (Ser10) (05-817, Cell Signaling) diluted in 2% (v/v) HS for 1 h at RT. […] Cell size was quantified blinded using the software Image J (version 1.47).

Compound: N[C@@H](Cc1cc(I)c(Oc2ccc(O)c(I)c2)c(I)c1)C(=O)O [T3, 3,3′,5-Triiodo-L-thyronine]
- ADP/ATP [1]: increase
- hypertrophy ([3H]leucine incorporation) [2]: highly miR27b-dependent hypertrophy

Compound: Nc1ncnc2c1ncn2[C@@H]1O[C@H](COP(=O)(O)OP(=O)(O)O)[C@@H](O)[C@H]1O [ADP]
- cardiomyocyte hypertrophy by cell size quantification [3]: cardiomyocyte hypertrophy
- multinucleation (percentage of multinucleated cells) [3]: sufficiency to induce multinucleation

From patent US20220332845A1, “INHIBITION OF MTHFD1L FOR USE IN HYPERTROPHIC HEART DISEASE AND HEART FAILURE” (GENOME BIOLOGICS UG, priority 2019, published 2022)
